Measurements as given in patent US10045531B2, “Use of one or more fatty acid esters as insecticide and/or arachnicide” (Oleon NV, priority 2014, dated 2018).

Experiments:
[1] = tested on: Rhopalosiphum padi; experiment: Efficacy on aphids on infested wheat seedlings, spray treatment; format: in vivo; conditions: sprayed on wheat seedlings
Method: The trial was carried out on wheat infected with aphids.
Rhopalosiphum padi aphids are reared on wheat in the laboratory. The rearing conditions are as follows: 14 hrs in the light at 18° C., and 10 hrs in darkness at 15° C. at a relative humidity (RH) of 60-70%.
“Triticum aestivum” wheat of the Apache variety is grown under the following conditions: 14 hrs in the light at 18° C., and 10 hrs in darkness at 15° C. at a relative humidity (RH) of 60-70%. For the experiments, seedlings having reached stage 12 on the BBCH-scale, i.e. 2 leaves, are chosen.
On D-1, 3 adult aphids are placed on each wheat seedling (approximately 30 seedlings per dose tested). The seedlings are kept for 14 hrs in the light at 18° C., and 10 hrs in darkness at 15° C. at a relative humidity (RH) of 60-70%.
On day D, the seedlings are treated with a composition as described in Example 1.a.). Emulsions containing the following doses of isoamyl laurate were tested: 1.35 L/ha (N/4), 2.7 L/ha (N/2), […] (N), 10.8 L/ha (2N) and 16.2 L/ha (3N). Two controls are carried out: a first control using water and a second control using the adjuvant, tested alone, at a dose of 1.8 L/ha, which corresponds to the dose of adjuvant contained in dose 3N of isoamyl laurate. The volume of composition sprayed corresponds to the equivalent of 200 L/ha.
For the treatment, nozzles are used to spray the different emulsions and to produce a good distribution of the drops over the plants (TeeJet 100015-VS flat spray nozzle used on a Euro-Pulvé laboratory sprayer).
On D+1, D+3, D+7, the adults and larvae present on each seedling are counted.
Statistical analysis is carried out using XLSTATS and a variance analysis is carried out using a Newman-Keuls and a Dunnett's test. The Dunnett's tests used post hoc following an ANOVA give a probability of 0.00.
The seedlings are treated on day D with a composition as described in Example 1.b). An emulsion containing the following dose of 2-ethylhexyl caprate was tested: 16.2 L/ha (3N). […]

[2] = tested on: Leptinotarsa decemlineata; experiment: Efficacy on Colorado potato beetle larvae, leaf soaking, IRAC method no.7; format: in vivo; conditions: dose 6.0 L/ha, composition 1.a, L4 larvae, mortality after 5 hrs
Method: The efficacy of isoamyl laurate on Colorado potato beetles has been evaluated according to a protocol based on IRAC (Insecticide Resistance Action Committee) method no.7, version 3, June 2009. Eggs from the Colorado potato beetle are collected from fields and placed on the lower (abaxial) surface of potato leaves. After 4 to 15 days, the hatching of the eggs takes place, producing dark red-brown larvae. Potato leaves are treated by soaking for 5 seconds in a composition as described in Example 1.a) at a dose of isoamyl laurate equivalent to 6.0 L/ha. The potato leaves are infested on the abaxial face thereof with 5 Colorado potato beetle larvae at stage L4. Each trial is repeated a second time. Mortality is evaluated after 5 hrs. At a dose of 6.0 L/ha of isoamyl laurate, 10% efficacy is obtained on the Colorado potato beetle larvae.

[3] = tested on: Ostrinia nubilalis; experiment: Efficacy on the European corn borer on corn leaves, spray treatment; format: in vivo; conditions: dose 6.0 L/ha, composition 1.a, counted on D+3
Method: The test was carried out on corn infected by the European corn borer. Egg clusters from Ostrinia nubilalis are kept under controlled laboratory conditions in order to allow the eggs to develop. The eggs are kept for 14 hrs in the light and at 18° C., and for 10 hrs in the dark at 15° C. at a relative humidity varying from 60 to 70%. After emerging, the larvae at the 1st and 2nd instar stages are used in the experiment. “Zea Mays” corn of the variety DK315 is grown under the following conditions: 14 hrs in the light at 18° C., and 10 hrs in darkness at 15° C. at a relative humidity (RH) of 60-70%. On D-1, 3 corn leaves are taken from the seedlings and placed in ventilated plastic boxes. 10 larvae are then placed onto the corn leaves in each box, the trial being repeated three times. The larvae are kept for 14 hrs in the light at 18° C., and 10 hrs in darkness at 15° C. at a relative humidity (RH) of 60-70%. The leaves are treated on day D with a composition as described in Example 1.a) with a dose of isoamyl laurate equivalent to 6.0 L/ha. For the treatment, nozzles are used to spray the composition in example 1.a) and to produce a good distribution of the drops onto the plants (TeeJet 110015-VS flat spray nozzle used on a Euro-Pulvé laboratory sprayer). […] On D+3, the larvae and adults present in each box are counted. […]

[4] = tested on: Pollen beetles Meligethes aeneus, susceptible; experiment: Efficacy on pollen beetles, coated glass phial, IRAC method no.11, susceptible strains; format: in vivo; conditions: after 24 hrs
Method: (§1) The efficacy of isoamyl laurate against pollen beetles has been evaluated according to a protocol based on IRAC (Insecticide Resistance Action Committee) method no.11, version 3, June 2009.
(§2) Pollen beetles are collected from different locations in infested fields. They are then kept in ventilated plastic boxes, in the bottom of which a dry paper has been placed. A number of oilseed rape leaves as well as 2 to 3 oilseed rape in flower are added as a food source. As it is important that the pollen beetles are not subjected to excessive temperatures, to humid conditions or other sources of stress following collection, they are kept under the following conditions: 14 hrs in the light at 18° C., and 10 hrs in darkness at 15° C. at a relative humidity (RH) of 60-70%.
(§3) The isoamyl laurate product was solubilized in acetone. Each solution was then placed in a homogeneous manner on the inside of a glass phial 2 cm in diameter and 4 cm in height, until the acetone has completely evaporated. The quantity of insecticide provided by 0.5 mL of acetone solution is calculated in such a way that a unit of area of the phial is covered with the same quantity of insecticide as that carried by the same unit of area of a leaf belonging to a field having undergone a treatment at 200 L/ha.
(§4) 10 pollen beetles are introduced into each phial, each trial being carried out twice.
(§5) Mortality is evaluated after 24 hrs.

[5] = tested on: Pollen beetles Meligethes aeneus, strains resistant to pyrethroids; experiment: Efficacy on pollen beetles, coated glass phial, IRAC method no.11, strains resistant to pyrethroids; format: in vivo; conditions: after 24 hrs
Method: as §1, §2, §3, §4, §5

[6] = Trials comparing a concentrate containing isoamyl laurate with a commercial insecticide containing Lambda-cyhalothrin; conditions: concentrate containing isoamyl laurate vs commercial insecticide containing Lambda-cyhalothrin
Excerpt: Preferably, in the concentrates according to the invention, the insecticide and/or arachnicide compound of formula (I) is 3-methylbutyl dodecanoate (isoamyl laurate).

[7] = dose 3N (16.2 L/ha) on D+1, composition with Actirob B adjuvant

Row | Compound | efficacy [1, 7] | efficacy (mortality) on larvae [2] | efficacy against the larvae and adults [3] | Efficacy (%) Susceptible ([4]; dose 2.0 L/ha) | Efficacy (%) Susceptible ([4]; dose 4.0 L/ha) | Efficacy (%) Strains resistant to pyrethroids ([5]; dose 2.0 L/ha) | Efficacy (%) Strains resistant to pyrethroids ([5]; dose 4.0 L/ha) | efficacy ([1]; dose 3N (16.2 L/ha), composition 1.a with Actirob B adjuvant, FIG. 2) | toxicity (aquatic toxicity, toxicity in humans through inhalation, irritation of the skin and eyes) [6]
1 | CCCCCCCCCC(=O)OCC(CC)CCCC (stereo not shown) [2-ethylhexyl caprate] | ~55% |  |  |  |  |  |  |  | 
2 | CCCCCCCCCCCCCCCC(=O)OCC(CC)CCCC (stereo not shown) [2-ethylhexyl palmitate, reference compound] | approximately 10% |  |  |  |  |  |  |  | 
3 | CCCCCCCCCCCC(=O)OCCC(C)C [isoamyl laurate, 3-methylbutyl dodecanoate] |  | 10% | 19.5% | 55% | 90% | 40% | 75% | ~80% | less toxic
